We go through 68 sequences from the supplement of paper PMC11208160.
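Also: IS621 bridge recombinase in Escherichia coli cells against a fixed T5 target plasmid.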

The data set can be described thus: recombinant UMI read abundance after kanamycin selection (control-corrected) (log10(CPM+1)); higher = more efficient recombination; extreme values may be limits of the assay; sequences stand for … in AGTGCAGAGAAAATCGGCCAGTTTTCTCTGCCTGCAGTCCGCATGCCGTGGGACCCCTTGGGTTCTAACCTGTTGCCTAGATTTATGCAGCGGACTGCCTTTCTCCCAAAGTGATAAACCGG…AGGTTGGTTTCACT; site = the 11-nt donor. The essentials:
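Counts of recombinant UMIs were reported as log10(CPM+1). Before that, they were converted to CPM, averaged over replicates and scaled using control-derived factors. They came from PCR across the donor–target junction after Escherichia coli carrying the pair library and target plasmid was plated on IPTG (0.07 mM) plus kanamycin, or unselected, in two replicates each.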
“TCGAAAACATGGACCGGTTTTCCCGGTAATCCGTATTTGTT (site TCGAAAACTAA)”: the “recombinant UMI read abundance (log10)” value was 0.
Turning to “TCGAATTCATGGACCGGTTTTCCCGGTAATCCGTATTTGCC (site TCAAATTCTGG)”, the “recombinant UMI read abundance (log10)” value is 0.
On to “TCGAATTCATGGACCGGTTTTCCCGGTAATCCGTATTTGCC (site TCCAATTCTGG)”, for which the “recombinant UMI read abundance (log10)” value turned out to be 0.
“TCGAATTCATGGACCGGTTTTCCCGGTAATCCGTATTTGCC (site TCGAATTCTGG)”: the “recombinant UMI read abundance (log10)” value was 0.
With “TCGAATTCATGGACCGGTTTTCCCGGTAATCCGTATTTGCC (site TCTAATTCTGG)” the figure was 0.193; with “TCGACACCATGGACCGGTTTTCCCGGTAATCCGTATTTGGC (site TCGACACCTGC)”, 0; with “TCGACGGCATGGACCGGTTTTCCCGGTAATCCGTATTTGAG (site TCGACGGCTCT)”, 0.666.
For “TCGACTCCATGGACCGGTTTTCCCGGTAATCCGTATTTGTC (site TCGACTCCTGA)”, the “recombinant UMI read abundance (log10)” value came out at 0.
As to “TCGAGTCCATGGACCGGTTTTCCCGGTAATCCGTATTTGAA (site TCGAGTCCTTT)”, the “recombinant UMI read abundance (log10)” value was found to be 0.307.
Regarding “TCGCCTGCATGGACCGGTTTTCCCGGTAATCCGTATTTGGT (site TCGCCTGCTAC)”, the “recombinant UMI read abundance (log10)” value came out at 0.0077.
“TCGCTCCCATGGACCGGTTTTCCCGGTAATCCGTATTTGAA (site TCGCTCCCTTT)”: the “recombinant UMI read abundance (log10)” value came out at 0.0848.
With “TCGGAAACATGGACCGGTTTTCCCGGTAATCCGTATTTGGT (site TCGGAAACTAC)”, the “recombinant UMI read abundance (log10)” value was determined as 0.88.
As to “TCGGAACCATGGACCGGTTTTCCCGGTAATCCGTATTTGTA (site TCGGAACCTTA)”, the “recombinant UMI read abundance (log10)” value came out at 0.
With “TCGGAATCATGGACCGGTTTTCCCGGTAATCCGTATTTGCG (site TAGGAATCTCG)” the figure was 0.861.
Then “TCGGAATCATGGACCGGTTTTCCCGGTAATCCGTATTTGCG (site TCGGAATCTCG)”, with 1.26; and “TCGGAATCATGGACCGGTTTTCCCGGTAATCCGTATTTGCG (site TGGGAATCTCG)”, with 0.211.
With “TCGGAATCATGGACCGGTTTTCCCGGTAATCCGTATTTGCG (site TTGGAATCTCG)” the figure was 1.03; with “TCGGACCCATGGACCGGTTTTCCCGGTAATCCGTATTTGAA (site TCGGACCCTTT)”, 0.274.
With “TCGGACTCATGGACCGGTTTTCCCGGTAATCCGTATTTGTT (site TCGGACTCTAA)”, the “recombinant UMI read abundance (log10)” value was 3.01.
Regarding “TCGGCCCCATGGACCGGTTTTCCCGGTAATCCGTATTTGTT (site TCGGCCCCTAA)”, the “recombinant UMI read abundance (log10)” value came out at 0.0126.
In the case of “TCGGGAACATGGACCGGTTTTCCCGGTAATCCGTATTTGAT (site TCGGGAACTAT)”, the “recombinant UMI read abundance (log10)” value came to 1.61.
With “TCGGTACCATGGACCGGTTTTCCCGGTAATCCGTATTTGCC (site TCGGTACCTGG)” the figure was 0; with “TCGGTATCATGGACCGGTTTTCCCGGTAATCCGTATTTGGT (site TCGGTATCTAC)”, 1.89.
On to “TCGGTTGCATGGACCGGTTTTCCCGGTAATCCGTATTTGGC (site TCGGTTGCTGC)”, for which the “recombinant UMI read abundance (log10)” value is 0.849.
For “TCGTTTCCATGGACCGGTTTTCCCGGTAATCCGTATTTGTA (site TCGTTTCCTTA)”, the “recombinant UMI read abundance (log10)” value came out at 1.36.
As to “TCTAACCCATGGACCGGTTTTCCCGGTAATCCGTATTTGCA (site TCTAACCCTTG)”, the “recombinant UMI read abundance (log10)” value came out at 0.
On to “TCTACACCATGGACCGGTTTTCCCGGTAATCCGTATTTGAC (site TATACACCTGT)”, for which the “recombinant UMI read abundance (log10)” value came to 0.00982.
With “TCTACACCATGGACCGGTTTTCCCGGTAATCCGTATTTGAC (site TCTACACCTGT)” the figure was 0.
Consider “TCTACACCATGGACCGGTTTTCCCGGTAATCCGTATTTGAC (site TGTACACCTGT)”, for which the “recombinant UMI read abundance (log10)” value is 0.
Regarding “TCTACACCATGGACCGGTTTTCCCGGTAATCCGTATTTGAC (site TTTACACCTGT)”, the “recombinant UMI read abundance (log10)” value worked out at 0.
As to “TCTACGTCATGGACCGGTTTTCCCGGTAATCCGTATTTGTC (site TCTACGTCTGA)”, the “recombinant UMI read abundance (log10)” value came out at 0.
With “TCTACTGCATGGACCGGTTTTCCCGGTAATCCGTATTTGCC (site ACTACTGCTGG)” the figure was 0; with “TCTACTGCATGGACCGGTTTTCCCGGTAATCCGTATTTGCC (site CCTACTGCTGG)”, 0.
With “TCTACTGCATGGACCGGTTTTCCCGGTAATCCGTATTTGCC (site GCTACTGCTGG)” the figure was 0; with “TCTACTGCATGGACCGGTTTTCCCGGTAATCCGTATTTGCC (site TCTACTGCTGG)”, 0; with “TCTAGATCATGGACCGGTTTTCCCGGTAATCCGTATTTGCA (site TCTAGATCTTG)”, 0.
Take “TCTAGGTCATGGACCGGTTTTCCCGGTAATCCGTATTTGTT (site TCTAGGTCTAA)”: the “recombinant UMI read abundance (log10)” value was 0.
For the sequence “TCTAGTTCATGGACCGGTTTTCCCGGTAATCCGTATTTGTG (site TCTAGTTCTCA)”, the “recombinant UMI read abundance (log10)” value was found to be 0.0111.
For “TCTATAACATGGACCGGTTTTCCCGGTAATCCGTATTTGCT (site TCTATAACTAG)”, the “recombinant UMI read abundance (log10)” value was found to be 0.
Take “TCTGAGCCATGGACCGGTTTTCCCGGTAATCCGTATTTGAT (site TCTGAGCCTAT)”: the “recombinant UMI read abundance (log10)” value stood at 0.00231.
As to “TCTGAGCCATGGACCGGTTTTCCCGGTAATCCGTATTTGTT (site TCTGAGCCTAA)”, the “recombinant UMI read abundance (log10)” value was 0.0283.
With “TCTGCGGCATGGACCGGTTTTCCCGGTAATCCGTATTTGCT (site TATGCGGCTAG)” the figure was 0.0269.
Regarding “TCTGCGGCATGGACCGGTTTTCCCGGTAATCCGTATTTGCT (site TCTGCGGCTAG)”, the “recombinant UMI read abundance (log10)” value was 0.246.
In the case of “TCTGCGGCATGGACCGGTTTTCCCGGTAATCCGTATTTGCT (site TGTGCGGCTAG)”, the “recombinant UMI read abundance (log10)” value turned out to be 0.0168.
“TCTGCGGCATGGACCGGTTTTCCCGGTAATCCGTATTTGCT (site TTTGCGGCTAG)”: the “recombinant UMI read abundance (log10)” value amounted to 0.0104.
Regarding “TCTGCTACATGGACCGGTTTTCCCGGTAATCCGTATTTGGT (site TCTGCTACTAC)”, the “recombinant UMI read abundance (log10)” value is 0.0161.
On to “TCTGTGGCATGGACCGGTTTTCCCGGTAATCCGTATTTGCC (site TCTGTGGCTGG)”, for which the “recombinant UMI read abundance (log10)” value was found to be 0.
Consider “TCTTAACCATGGACCGGTTTTCCCGGTAATCCGTATTTGTG (site TCTTAACCTCA)”, for which the “recombinant UMI read abundance (log10)” value turned out to be 0.0128.
Turning to “TCTTACCCATGGACCGGTTTTCCCGGTAATCCGTATTTGCA (site TCTTACCCTTG)”, the “recombinant UMI read abundance (log10)” value came out at 0.
With “TCTTACGCATGGACCGGTTTTCCCGGTAATCCGTATTTGGC (site TCTTACGCTGC)” the figure was 0; with “TCTTCAACATGGACCGGTTTTCCCGGTAATCCGTATTTGTG (site TCTTCAACTCA)”, 0.0171.
With “TCTTCTACATGGACCGGTTTTCCCGGTAATCCGTATTTGAC (site TCTTCTACTGT)” the figure was 0; with “TCTTCTGCATGGACCGGTTTTCCCGGTAATCCGTATTTGAT (site TCTTCTGCTAT)”, 0; with “TCTTTACCATGGACCGGTTTTCCCGGTAATCCGTATTTGGG (site TCTTTACCTCC)”, 0.0231.
For the sequence “TCTTTACCATGGACCGGTTTTCCCGGTAATCCGTATTTGTA (site TCTTTACCTTA)”, the “recombinant UMI read abundance (log10)” value amounted to 0.00582.
Regarding “TCTTTGGCATGGACCGGTTTTCCCGGTAATCCGTATTTGTG (site TATTTGGCTCA)”, the “recombinant UMI read abundance (log10)” value came to 0.0246.
On to “TCTTTGGCATGGACCGGTTTTCCCGGTAATCCGTATTTGTG (site TCTTTGGCTCA)”, for which the “recombinant UMI read abundance (log10)” value came to 0.0151.
With “TCTTTGGCATGGACCGGTTTTCCCGGTAATCCGTATTTGTG (site TGTTTGGCTCA)” the figure was 0.0149; with “TCTTTGGCATGGACCGGTTTTCCCGGTAATCCGTATTTGTG (site TTTTTGGCTCA)”, 0.0253; with “TGAAAATCATGGACCGGTTTTCCCGGTAATCCGTATTTGAT (site TGAAAATCTAT)”, 0.
With “TGAAAGACATGGACCGGTTTTCCCGGTAATCCGTATTTGCA (site AGGAAGACTTG)” the figure was 2.91; with “TGAAAGACATGGACCGGTTTTCCCGGTAATCCGTATTTGCA (site TGAAAGACTTG)”, 2.45; with “TGAACACCATGGACCGGTTTTCCCGGTAATCCGTATTTGAC (site TGAACACCTGT)”, 0.
Regarding “TGAACACCATGGACCGGTTTTCCCGGTAATCCGTATTTGAC (site TGCACACCTGT)”, the “recombinant UMI read abundance (log10)” value turned out to be 0.
“TGAACACCATGGACCGGTTTTCCCGGTAATCCGTATTTGAC (site TGGACACCTGT)”: the “recombinant UMI read abundance (log10)” value amounted to 0.
As for “TGAACACCATGGACCGGTTTTCCCGGTAATCCGTATTTGAC (site TGTACACCTGT)”, the “recombinant UMI read abundance (log10)” value is 0.
As to “TGAAGAGCATGGACCGGTTTTCCCGGTAATCCGTATTTGCA (site TGAAGAGCTTG)”, the “recombinant UMI read abundance (log10)” value was 2.54.
Consider “TGAAGCGCATGGACCGGTTTTCCCGGTAATCCGTATTTGCT (site TGAAGCGCTAG)”, for which the “recombinant UMI read abundance (log10)” value was 2.01.
